Source: article PMC9945182 (Chemical Research in Toxicology, 2023)
Where two headings read alike, the source gives them in different places.

Assays:
[1] = tested on: human liver microsomes (HLM); experiment: Inhibition of nicotine to nornicotine formation in pooled human liver microsomes; type: biochemical; conditions: nicotine 500 μM
FMO3 = molecular target: T1, FMO3 (Homo sapiens, UniProt P31513); type: biochemical; conditions: 1 or 10 μM cannabinoid; nicotine 1 mM; FMO3 microsomes
T1 sequence (P31513 1-532): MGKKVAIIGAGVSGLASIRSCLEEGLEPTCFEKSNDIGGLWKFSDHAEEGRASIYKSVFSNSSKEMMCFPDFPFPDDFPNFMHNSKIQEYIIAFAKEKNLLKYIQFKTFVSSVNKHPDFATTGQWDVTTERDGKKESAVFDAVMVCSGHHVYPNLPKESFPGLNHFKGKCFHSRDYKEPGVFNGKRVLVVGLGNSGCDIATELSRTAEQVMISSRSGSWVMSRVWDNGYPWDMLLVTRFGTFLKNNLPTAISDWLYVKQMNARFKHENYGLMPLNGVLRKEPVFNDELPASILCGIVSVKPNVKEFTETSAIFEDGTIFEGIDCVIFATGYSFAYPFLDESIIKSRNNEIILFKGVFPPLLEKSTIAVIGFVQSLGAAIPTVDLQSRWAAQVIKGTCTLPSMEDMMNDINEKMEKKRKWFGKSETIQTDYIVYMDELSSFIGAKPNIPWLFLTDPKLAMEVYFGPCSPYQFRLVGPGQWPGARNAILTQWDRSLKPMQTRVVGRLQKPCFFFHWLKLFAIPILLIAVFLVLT

UGT2B10 [2] = molecular target: T2, UGT2B10 (Homo sapiens, UniProt P36537); type: biochemical; conditions: UGT2B10 microsomes; nicotine or cotinine as substrate; screening
T2 sequence (P36537 24-528): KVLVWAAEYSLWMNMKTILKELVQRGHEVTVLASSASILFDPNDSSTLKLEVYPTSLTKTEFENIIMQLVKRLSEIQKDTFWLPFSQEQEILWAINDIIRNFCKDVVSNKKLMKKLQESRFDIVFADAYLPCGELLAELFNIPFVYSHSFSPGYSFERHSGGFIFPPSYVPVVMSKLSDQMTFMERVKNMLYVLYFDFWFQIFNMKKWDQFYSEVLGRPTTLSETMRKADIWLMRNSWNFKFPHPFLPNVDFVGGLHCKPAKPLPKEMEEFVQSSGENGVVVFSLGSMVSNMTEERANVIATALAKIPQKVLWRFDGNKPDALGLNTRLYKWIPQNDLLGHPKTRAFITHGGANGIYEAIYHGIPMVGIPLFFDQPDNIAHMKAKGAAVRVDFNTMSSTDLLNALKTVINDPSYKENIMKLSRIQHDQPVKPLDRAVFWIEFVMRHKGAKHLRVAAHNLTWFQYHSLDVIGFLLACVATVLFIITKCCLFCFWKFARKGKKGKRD

CYP2C19 = CYP2C19 (Homo sapiens, UniProt P33261); type: biochemical; conditions: 10 μM inhibitor; cotinine substrate; CYP2C19 microsomes
UGT2B7 = molecular target: T3, UGT2B7 (Homo sapiens, UniProt P16662); type: biochemical; conditions: for decrease in 3HC-Gluc formation: 3HC 30 mM, UGT2B7 microsomes
T3 sequence (P16662 24-529): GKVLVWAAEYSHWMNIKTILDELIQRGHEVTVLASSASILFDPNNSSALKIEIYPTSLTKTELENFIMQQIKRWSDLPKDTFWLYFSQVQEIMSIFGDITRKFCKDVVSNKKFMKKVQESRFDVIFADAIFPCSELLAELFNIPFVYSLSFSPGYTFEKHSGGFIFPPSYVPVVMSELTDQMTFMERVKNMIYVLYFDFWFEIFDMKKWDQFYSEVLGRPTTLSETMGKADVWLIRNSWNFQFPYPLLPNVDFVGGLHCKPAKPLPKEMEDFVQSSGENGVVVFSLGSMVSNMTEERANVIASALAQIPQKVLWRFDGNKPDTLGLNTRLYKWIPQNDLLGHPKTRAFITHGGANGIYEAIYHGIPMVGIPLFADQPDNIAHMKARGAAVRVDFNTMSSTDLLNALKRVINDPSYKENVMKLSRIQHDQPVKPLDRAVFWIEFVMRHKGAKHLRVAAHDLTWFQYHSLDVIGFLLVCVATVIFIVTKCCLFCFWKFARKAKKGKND

cigarette smokers = conditions: single 800 mg oral dose, compared with a placebo group; cited from earlier work
UGT2B17 = molecular target: T4, UGT2B17 (Homo sapiens, UniProt O75795); type: biochemical; conditions: UGT2B17 microsomes; 3HC as substrate; screening
T4 sequence (O75795 24-530): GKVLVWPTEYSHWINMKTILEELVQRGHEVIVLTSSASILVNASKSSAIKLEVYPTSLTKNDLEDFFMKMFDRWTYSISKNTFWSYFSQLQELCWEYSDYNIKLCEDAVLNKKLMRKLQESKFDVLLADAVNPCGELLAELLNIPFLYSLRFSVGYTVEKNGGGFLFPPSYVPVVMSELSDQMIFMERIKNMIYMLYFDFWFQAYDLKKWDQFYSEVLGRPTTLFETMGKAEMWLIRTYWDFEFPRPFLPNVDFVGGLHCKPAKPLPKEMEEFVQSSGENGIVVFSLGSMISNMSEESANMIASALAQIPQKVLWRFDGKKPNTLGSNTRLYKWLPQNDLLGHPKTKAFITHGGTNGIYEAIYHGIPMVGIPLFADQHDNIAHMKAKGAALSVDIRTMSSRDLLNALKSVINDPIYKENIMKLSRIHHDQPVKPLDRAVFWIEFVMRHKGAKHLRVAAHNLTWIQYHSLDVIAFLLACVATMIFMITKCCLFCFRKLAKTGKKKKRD

[3] = to protein and labware; cited from earlier work
UGT2B10 [4] = molecular target: T2, UGT2B10; conditions: previous studies; cited from earlier work

Sequence of CYP2C19 (P33261 whole entry): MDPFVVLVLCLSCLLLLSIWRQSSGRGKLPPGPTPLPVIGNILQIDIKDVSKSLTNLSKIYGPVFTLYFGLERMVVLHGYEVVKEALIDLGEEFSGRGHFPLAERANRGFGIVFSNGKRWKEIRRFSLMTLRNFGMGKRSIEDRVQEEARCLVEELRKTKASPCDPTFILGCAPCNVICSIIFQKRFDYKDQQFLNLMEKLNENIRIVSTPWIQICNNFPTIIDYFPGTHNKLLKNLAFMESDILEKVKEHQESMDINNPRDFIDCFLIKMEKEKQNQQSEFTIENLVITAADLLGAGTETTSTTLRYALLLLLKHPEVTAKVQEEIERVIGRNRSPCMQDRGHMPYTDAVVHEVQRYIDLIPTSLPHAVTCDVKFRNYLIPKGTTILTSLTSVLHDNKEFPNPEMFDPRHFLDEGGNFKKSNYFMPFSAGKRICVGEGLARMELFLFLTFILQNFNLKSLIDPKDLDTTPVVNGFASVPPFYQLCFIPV

Row | Compound | IC50 [1] | inhibitory effect on NOX formation (FMO3) | inhibition of nicotine-Gluc or cotinine-Gluc formation (UGT2B10 [2]) | inhibition of COX formation (CYP2C19) | decrease in 3HC-Gluc formation (UGT2B7; 1 μM CBD) | decrease in 3HC-Gluc formation (UGT2B7; 10 μM CBD) | inhibition at 100 μM (UGT2B7; human, microsomes from UGT2B7-overexpressing HEK293 cells, pH 7.4, probe 3HC (30 mM), 3HC-Gluc formation) | effect on cigarette cues (cigarette smokers) | effect on 3HC-Gluc formation (UGT2B17) | nonspecific binding [3] | inhibition of nicotine-Gluc formation by UGT2B10 (UGT2B10 [4])
1 | C=C(C)[C@@H]1CCC(CO)=C[C@H]1c1c(O)cc(CCCCC)cc1O [7-OH-CBD, 7-hydroxy-cannabidiol] | 7.9 ± 2.5 µM | No inhibitory effect | no significant inhibition | 15% | – | – | – | – | – | – | –
2 | C=C(C)[C@@H]1CCC(C)=C[C@H]1c1c(O)cc(CCCCC)cc1O [CBD, cannabidiol] | 5.1 ± 1.1 µM | No inhibitory effect | no significant inhibition | – | 35% | 55% | > 50% | reduced the salience and pleasantness of cigarette cues | not inhibited | 70–90% | does not inhibit
